# Laboratory results published in patent publication US4722922A, “Tetrapeptide amides in the treatment of hypertension” (priority 1985, dated 1988).
# Counter-ions that a name gives are not always drawn. Non-standard residues stand in square brackets, D forms with d. Residues, ends and D or L forms follow the SMILES beside them. No end group written: not given here. *: point of attachment. dTyr(3-tBu) = CC(C)(C)c1cc(C[C@@H](N)C(=O)O)ccc1O; Tyr(3-tBu) = CC(C)(C)c1cc(C[C@H](N)C(=O)O)ccc1O; dMet(O2) = CS(=O)(=O)CC[C@@H](N)C(=O)O; Sta = CC(C)C[C@H](N)[C@@H](O)CC(=O)O; Isovaleryl = CC(C)CC(=O)*; Ahx = NCCCCCC(=O)O
# Legend:
# human renin = target: T1, human renin (Homo sapiens, UniProt P00797); assay: Inhibition of Human Renin (angiotensin I formation, radioimmunoassay); type: biochemical; conditions: for % Inhibition: human renin test, 0.1 mGU/ml human renin, human plasma, two-hour incubation at 37° C., pH 7.5, test compound concentration not given
# T1 construct: human renin, isolated from kidneys, was obtained from the World Health Organization International Laboratory for Biological Standards; tissue World Health Organization International Laboratory for Biological Standards (National Institute for Biological Standards and Control, London, England); host or cells: human kidney
# T1 sequence (P00797 67-406): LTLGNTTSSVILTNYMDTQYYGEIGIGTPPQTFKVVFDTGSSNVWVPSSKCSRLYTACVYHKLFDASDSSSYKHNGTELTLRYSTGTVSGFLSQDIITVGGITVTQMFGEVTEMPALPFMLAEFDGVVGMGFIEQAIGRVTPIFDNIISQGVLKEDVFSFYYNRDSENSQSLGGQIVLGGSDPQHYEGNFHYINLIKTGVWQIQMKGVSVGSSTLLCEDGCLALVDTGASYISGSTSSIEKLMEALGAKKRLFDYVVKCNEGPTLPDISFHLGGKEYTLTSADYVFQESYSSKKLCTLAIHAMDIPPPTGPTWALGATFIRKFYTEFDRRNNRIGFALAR
# Method: The renin inhibition activity of the compounds of this invention illustrated in the examples was tested by the following method.
# Inhibition of Human Renin
# International reference standard human renin, isolated from kidneys, was obtained from the World Health Organization International Laboratory for Biological Standards (National Institute for Biological Standards and Control, London, England). Renin activity is defined in "Goldblatt units" (GU), the quantity that, when injected directly into the blood stream of an unanesthetized dog, raises the direct mean femoral artery blood pressure by 30 mm Hg in about two minutes. E. Haas, L. Lewis, P. Scipione, and T. J. Koshy, Hypertension, 1, 112-117 (1979). Human angiotensinogen was used as an unisolated component of human blood plasma. The enzyme inhibition assay, see K. Poulsen, J. Burton, and E. Haber, Biochemistry, 12, 3877-3882 (1973), involved a two-hour incubation at 37° C. of the following final concentrations of reagents (0.25 ml total volume): 0.1 mGU/ml human renin; 0.05 ml human plasma; 6 mM disodium EDTA; 2.4 mM phenylmethylsulfonyl fluoride and 1.5 mM 8-hydroxyquinoline (angiotensinase inhibitors); 0.4 mg/ml bovine serum albumin; and 0.024 neomycin sulfate in 100 mM Tris-acetate buffer (pH 7.5). The enzymatic reaction was terminated by boiling the mixture for ten minutes. The quantity of angiotensin I formed was determined by radioimmunoassay, using the general method used in the angiotensin I radioimmunoassay kit of New England Nuclear.
# [1] = test system: renal-ligated hypertensive rat; assay: Renal-ligated Hypertensive Rat Assay; type: in vivo, Sprague Dawley rats; conditions: renal-ligated rats
# Method: Renal-ligated Hypertensive Rat Assay
# Male Sprague Dawley rats aged 11 to 15 weeks old were used in this test. […] Test compounds were administered intra-arterially at a dose of 10 mg per kg of body weight, and blood pressure changes were monitored directly at 5, 10, and 15 minutes after injection.
Compound,% Inhibition (human renin) [%],other results
"2,4-dimethyl-3-hydroxyphenylalanyl-D-methionylglycyl-N-(6-methoxy-6-oxohexyl)-L-phenylalaninamide monohydrochloride hemihydrate [Example 77]",73,
"COC(=O)CCCCCNC(=O)[C@H](Cc1ccccc1)NC(=O)CNC(=O)[C@@H](CCSC)NC(=O)[C@@H](N)Cc1ccc(OC(=O)OCC(C)C)c(C(C)(C)C)c1.Cl (racemic) [Example 69, O-(2-methylpropoxycarbonyl)-3-t-butyl-tyrosyl-D-methionylglycyl-N-(6-methoxy-6-oxohexyl)-L-phenylalaninamide monohydrochloride]",43,
"COC(=O)CCCCCNC(=O)[C@H](Cc1ccccc1)NC(=O)CNC(=O)[C@@H](CCS(C)(=O)=O)NC(=O)[C@@H](N)Cc1ccc(O)c(C(C)(C)C)c1 [Example 73, 3-t-butyl-L-tyrosyl-[4-(methylsulfonyl)-D-2-aminobutanoyl]glycyl-N-(6-methoxy-6-oxohexyl)-L-phenylalaninamide monohydrochloride hemihydrate] (H-[Tyr(3-tBu)][dMet(O2)]GF[Ahx]-OMe)",21,
"COC(=O)CCCCCNC(=O)[C@H](Cc1ccccc1)NC(=O)CNC(=O)[C@@H](CCS(C)(=O)=O)NC(=O)[C@H](N)Cc1ccc(O)c(C(C)(C)C)c1 [Example 74, 3-t-butyl-D-tyrosyl-[4-(methylsulfonyl)-D-2-aminobutanoyl]glycyl-N-(6-methoxy-6-oxohexyl)-L-phenylalaninamide monohydrochloride hemihydrate] (H-[dTyr(3-tBu)][dMet(O2)]GF[Ahx]-OMe)",28,
CC(C)CC(=O)N[C@H](C(=O)N[C@H](C(=O)N[C@@H](CC(C)C)[C@@H](O)CC(=O)N[C@@H](C)C(=O)N[C@@H](CC(C)C)[C@@H](O)CC(=O)O)C(C)C)C(C)C [Pepstatin] (Isovaleryl-VV[Sta]A[Sta]-OH),,"plasma renin activity ([1]; same test conditions): significantly reduced; mean arterial blood pressure ([1]; test compounds given intra-arterially, pressure read at 5, 10 and 15 minutes after injection): significantly reduced"
"O-(2-methylpropoxycarbonyl)-2,3,6-trimethyltyrosyl-[4-(methylsulfinyl)-D-2- aminobutanoyl]glycyl-N-(6-methoxy-6-oxohexyl)-L-phenylalaninamide monohydrochloride sesquihydrate [Example 58]",26,
O-(2-methylpropoxycarbonyl)-2-methyltyrosyl-D-methionylglycyl-N-(6-methoxy- 6-oxohexyl)-L-phenylalaninamide monohydrochloride hemihydrate [Example 63],23,
O-(2-methylpropoxycarbonyl)-2-methyltyrosyl-[4-(methylsulfinyl)-D-2-aminobutanoyl]-glycyl-N-(6-methoxy-6-oxohexyl)-L-phenylalaninamide monohydrochloride hemihydrate [Example 64],22,
O-(2-methylpropoxycarbonyl)-3-t-butyltyrosyl-[4-(methylsulfinyl)-D-2-aminobutanoyl]glycyl-N-(6-methoxy-6-oxohexyl)-L-phenylalaninamide monohydrochloride hemihydrate [Example 70],25,
"PHPFHLFVY [Pro-[Phe^6]octapeptide, prolylhistidylprolylphenylalanylhistidylleucylphenylalanylvalyltyrosine, reference compound]",,activity in the human renin inhibition assay (human renin; stated in words): active
